Assay [1] concerns the target T1, SYMRK (intracellular domain; SYMRK-WT) (Lotus japonicus, UniProt Q8LKX1, S877D/S885D/S889D/S893D).
T1 construct: intracellular kinase region with C-terminal alpha-I motif (intracellular domain modelled as 545-923); E. coli Rosetta 2, pAH10R7Sumo3C, tag cut with 3C, lambda-phosphatase dephosphorylated
Briefly: nanoDSF thermal stability, […] nm fluorescence. It is filed as binding. The conditions noted are these: 1 mM ATP, 5 mM MgCl2, pH 7.5, 15 min on ice, 25 to 95 °C at 1 °C/min.

Assay [2] deals with T2, SYMRK (intracellular domain; SYMRK-WT) (Lotus japonicus, UniProt Q8LKX1, S877A/S885A/S889A/S893A).
T2 construct: intracellular kinase region with C-terminal alpha-I motif (intracellular domain modelled as 545-923); E. coli Rosetta 2, pAH10R7Sumo3C, tag cut with 3C, lambda-phosphatase dephosphorylated
Kind of assay: nanoDSF thermal stability, […] nm fluorescence. It is filed as binding. The conditions noted are these: 1 mM ATP, 5 mM MgCl2, pH 7.5, 15 min on ice, 25 to 95 °C at 1 °C/min. A general note: In DSF a fluorescence change marks the thermal transition of the protein.

Assay [3] has as its target T3, SYMRK (intracellular domain; SYMRK-WT) (Lotus japonicus, UniProt Q8LKX1).
T3 construct: intracellular kinase region with C-terminal alpha-I motif (intracellular domain modelled as 545-923); E. coli Rosetta 2, pAH10R7Sumo3C, tag cut with 3C, lambda-phosphatase dephosphorylated
T3 sequence (Q8LKX1 545-923 limits assumed): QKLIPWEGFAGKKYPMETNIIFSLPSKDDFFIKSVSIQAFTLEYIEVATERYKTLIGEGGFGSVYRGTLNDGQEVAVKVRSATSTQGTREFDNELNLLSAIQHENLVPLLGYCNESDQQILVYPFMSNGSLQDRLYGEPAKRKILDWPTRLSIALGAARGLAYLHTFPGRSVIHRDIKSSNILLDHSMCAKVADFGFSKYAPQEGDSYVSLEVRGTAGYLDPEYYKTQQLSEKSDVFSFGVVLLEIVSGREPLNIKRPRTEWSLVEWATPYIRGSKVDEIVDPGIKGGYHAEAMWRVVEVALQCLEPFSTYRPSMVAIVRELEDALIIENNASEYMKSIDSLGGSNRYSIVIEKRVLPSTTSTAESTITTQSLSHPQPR
Kind of assay: nanoDSF thermal stability, […] nm fluorescence. It is filed as binding. Conditions: 1 mM ATP, 5 mM MgCl2, pH 7.5, 15 min on ice, 25 to 95 °C at 1 °C/min.

Assay [4] has as its target T3, SYMRK (intracellular domain; SYMRK-WT). Briefly: radioactive kinase assay, SDS-PAGE autoradiography. It is filed as biochemical. The conditions noted are these: labelled compound; 100 nCi, 5 mM MgCl2, MBP co-substrate and autophosphorylation, pH 7.5, room temperature, 1 h.
The target in assay [5] is T2, SYMRK (intracellular domain; SYMRK-WT). Kind of assay: radioactive kinase assay, SDS-PAGE autoradiography. It is filed as biochemical. Conditions: labelled compound; 100 nCi, 5 mM MgCl2, MBP co-substrate and autophosphorylation, pH 7.5, room temperature, 1 h.

T2 sequence (Q8LKX1 entry or part of it S877A/S885A/S889A/S893A): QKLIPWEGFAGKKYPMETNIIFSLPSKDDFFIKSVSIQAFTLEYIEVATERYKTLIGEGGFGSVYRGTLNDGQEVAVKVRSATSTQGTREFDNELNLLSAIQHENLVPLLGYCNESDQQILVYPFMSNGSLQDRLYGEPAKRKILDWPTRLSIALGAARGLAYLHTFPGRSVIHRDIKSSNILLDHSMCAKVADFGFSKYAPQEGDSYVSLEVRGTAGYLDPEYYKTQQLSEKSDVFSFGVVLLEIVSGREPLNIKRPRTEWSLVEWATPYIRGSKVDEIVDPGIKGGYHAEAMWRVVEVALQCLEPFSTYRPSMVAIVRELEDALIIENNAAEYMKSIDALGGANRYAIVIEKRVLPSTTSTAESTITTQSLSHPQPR
T1 sequence (Q8LKX1 entry or part of it S877D/S885D/S889D/S893D): as the sequence (Q8LKX1 entry or part of it S877A/S885A/S889A/S893A) above, with A333D, A341D, A345D, A349D counted along it

For `Nc1ncnc2c1ncn2[C@@H]1O[C@H](COP(=O)(O)OP(=O)(O)OP(=O)(O)O)[C@@H](O)[C@H]1O` [ATP], the thermal stabilization entry in assay [1] is “we purified SYMRK-4D and found it to be monodisperse, thermostable, ATP binding, and catalytically active”; in assay [2] it was “all proteins except the catalytically inactive SYMRK-K622E control showed ATP-binding capacity”; in assay [3], “all proteins except the catalytically inactive SYMRK-K622E control showed ATP-binding capacity”.

As to `Nc1ncnc2c1ncn2[C@@H]1O[C@H](COP(=O)(O)OP(=O)(O)OP(=O)(O)O)[C@@H](O)[C@H]1O` [γ-32P-labeled ATP], the “radioactive kinase assay, SDS-PAGE autoradiography” value in assay [4] is “SYMRK-4A and SYMRK-WT are active kinases capable of both autophosphorylation and transphosphorylation”; in assay [5], “SYMRK-4A and SYMRK-WT are active kinases capable of both autophosphorylation and transphosphorylation”.
